Measurements as given in patent US20250195427A1, “ANTI-INFLAMMATORY DRUG-ELUTING COMPOSITIONS AND METHODS” (THE REGENTS OF THE UNIVERSITY OF CALIFORNIA, priority 2022, published 2025).
Values after ≈ are worked out from the molar mass of the structure shown.

How the values were obtained:
[1] = Drug loading of mPEG-b-p(HPMAm-Lacn) micelles by HPLC (loaded concentration, encapsulation efficiency, loading capacity); assay type: physicochemical; conditions: for final concentration of drug loaded inside MCs: polymer 10 mg/mL, 1 mL MC solution, HPLC; for difference in encapsulation efficiency (EE) % with various polymer/drug ratios: polymer/drug ratios 10:0.25 to 10:2
Experimental: Drug loaded MCs were formed by self-assembly via a solvent evaporation method. Briefly, 10 mg of copolymers […] dissolved in 1 mL of acetone. Various amounts of drugs (0.25, 0.5, 1 and 2 mg) were then added to the copolymer solution and vortexed until fully mixed. […] The next day, the MC solution was centrifuged at 4,000 rpm at 22° C. for 10 min to remove unencapsulated drugs. LE, PA, and DEX were three drugs of interest. 30 mg/mL of drug stock solutions were prepared in DMSO. Unloaded MCs were prepared with the same procedure without the addition of drugs. The amount of loaded drugs (LE, PA and DEX) in the polymeric MCs was determined by using High Performance Liquid Chromatography (HPLC). Taking LE as an example, after centrifugation of the MC solution, the unencapsulated LE pellet was redissolved in 1 mL of ACN. […] LE dissolved in ACN (concentration from 0.1 mg/ml to 1 mg/ml) was used for calibration. The encapsulation efficiency (EE) and loading capacity (LC) were calculated as follows: […]

[2] = cited from earlier work

Row | final concentration of drug loaded inside MCs ([1]; initially applied drug 0.25 mg) [µg/mL] | final concentration of drug loaded inside MCs ([1]; initially applied drug 2 mg) [µg/mL] | difference in encapsulation efficiency (EE) % with various polymer/drug ratios [1] | SMILES | Log P [2] | solubility in water [2] [µg/mL]
1 | 55.7 ± 10.0 | 589.2 ± 75.5 | No significant difference | CCOC(=O)O[C@]1(C(=O)OCCl)CC[C@H]2[C@@H]3CCC4=CC(=O)C=C[C@]4(C)[C@H]3[C@@H](O)C[C@@]21C [LE, Loteprednol etabonate] | 3.08 | 0.5 (≈ 1.07 µM)
2 | 171.7 ± 4.2 | 1154.0 ± 108.6 | No significant difference | CC(=O)OCC(=O)[C@@]1(O)CC[C@H]2[C@@H]3CCC4=CC(=O)C=C[C@]4(C)[C@H]3[C@@H](O)C[C@@]21C [PA, Prednisolone acetate] | – | –
